Laboratory results reported in patent US10815241B2, “Optically active azabicyclo ring derivative” (priority 2018, dated 2020).
“Also recorded” adds a separate entry of the source. Where two headings read alike, the source gives them in different places.

Key:
[1] = molecular target: hERG (human Ether-a-go-go Related Gene) (Homo sapiens (Human), UniProt Q12809); experiment: Test 4: hERG inhibition (QPatch HT, CHO cells stably expressing hERG); details: for hERG/RS4; 11: hERG IC50 divided by RS4;11 proliferation IC50
hERG (human Ether-a-go-go Related Gene), sequence (Q12809 whole entry): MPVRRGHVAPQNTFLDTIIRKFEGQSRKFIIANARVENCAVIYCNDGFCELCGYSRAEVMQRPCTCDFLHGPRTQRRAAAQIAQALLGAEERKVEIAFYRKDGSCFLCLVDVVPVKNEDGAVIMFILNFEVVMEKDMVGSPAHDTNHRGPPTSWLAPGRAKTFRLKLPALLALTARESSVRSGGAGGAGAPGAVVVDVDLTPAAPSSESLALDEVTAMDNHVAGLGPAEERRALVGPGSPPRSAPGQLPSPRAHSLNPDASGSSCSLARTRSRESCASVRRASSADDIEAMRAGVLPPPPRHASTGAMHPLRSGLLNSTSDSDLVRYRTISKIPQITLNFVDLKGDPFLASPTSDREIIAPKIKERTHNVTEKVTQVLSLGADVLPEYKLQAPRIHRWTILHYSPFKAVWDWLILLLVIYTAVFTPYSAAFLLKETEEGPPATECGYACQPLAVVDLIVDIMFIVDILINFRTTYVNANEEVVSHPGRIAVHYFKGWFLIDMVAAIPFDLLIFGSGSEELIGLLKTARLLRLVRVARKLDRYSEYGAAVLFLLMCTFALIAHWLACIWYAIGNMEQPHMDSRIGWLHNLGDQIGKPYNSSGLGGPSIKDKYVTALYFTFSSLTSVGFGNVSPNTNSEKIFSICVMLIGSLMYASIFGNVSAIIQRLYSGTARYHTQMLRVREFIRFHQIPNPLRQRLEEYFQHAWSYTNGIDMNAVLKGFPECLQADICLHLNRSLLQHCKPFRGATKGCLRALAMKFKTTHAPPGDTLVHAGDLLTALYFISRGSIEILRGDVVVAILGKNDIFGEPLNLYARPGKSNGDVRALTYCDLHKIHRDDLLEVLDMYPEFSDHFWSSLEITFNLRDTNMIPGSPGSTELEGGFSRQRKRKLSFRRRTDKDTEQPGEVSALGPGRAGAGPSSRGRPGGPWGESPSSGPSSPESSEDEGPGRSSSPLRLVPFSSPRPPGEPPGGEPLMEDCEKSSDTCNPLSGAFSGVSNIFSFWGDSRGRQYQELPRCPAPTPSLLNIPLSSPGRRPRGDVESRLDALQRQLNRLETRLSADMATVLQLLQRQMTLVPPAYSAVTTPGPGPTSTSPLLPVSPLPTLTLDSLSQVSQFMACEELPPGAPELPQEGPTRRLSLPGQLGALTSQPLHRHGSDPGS

HOXA9 = experiment: Test 3: inhibition of mRNA transcription, HOXA9 in MV4;11 cells; format: cell-based; details: 20 to 24 hours, relative to GAPDH
Excerpt: (§1) MV4; 11 cells were obtained from American Type Culture Collection (ATCC). […] The expression level of each obtained gene (MEIS1 and HOXA9) was fitted with the expression level of mRNA of GAPDH.

MEIS1 = experiment: Test 3: inhibition of mRNA transcription, MEIS1 in MV4;11 cells; format: cell-based; details: for mRNA at 1 μM (% control) MEIS1: MV4;11 cells, 20 to 24 hours, relative to GAPDH; for mRNA transcription inhibition activity: statement in words, MEIS1 and HOXA9, MV4;11 cells
Excerpt: as §1

[2] = molecular target: Menin-MLL binding (His-Menin1-615 / MLL1-172-FLAG) (Homo sapiens (Human), UniProt O00255); experiment: Test 1: inhibition of the Menin-MLL binding (HTRF); details: for IC50: Menin-MLL binding inhibition; for Menin-MLL binding inhibition activity: statement in words on the table of Test 1
Menin-MLL binding (His-Menin1-615 / MLL1-172-FLAG), sequence (O00255 other isoform, or with tags, fused parts or gaps): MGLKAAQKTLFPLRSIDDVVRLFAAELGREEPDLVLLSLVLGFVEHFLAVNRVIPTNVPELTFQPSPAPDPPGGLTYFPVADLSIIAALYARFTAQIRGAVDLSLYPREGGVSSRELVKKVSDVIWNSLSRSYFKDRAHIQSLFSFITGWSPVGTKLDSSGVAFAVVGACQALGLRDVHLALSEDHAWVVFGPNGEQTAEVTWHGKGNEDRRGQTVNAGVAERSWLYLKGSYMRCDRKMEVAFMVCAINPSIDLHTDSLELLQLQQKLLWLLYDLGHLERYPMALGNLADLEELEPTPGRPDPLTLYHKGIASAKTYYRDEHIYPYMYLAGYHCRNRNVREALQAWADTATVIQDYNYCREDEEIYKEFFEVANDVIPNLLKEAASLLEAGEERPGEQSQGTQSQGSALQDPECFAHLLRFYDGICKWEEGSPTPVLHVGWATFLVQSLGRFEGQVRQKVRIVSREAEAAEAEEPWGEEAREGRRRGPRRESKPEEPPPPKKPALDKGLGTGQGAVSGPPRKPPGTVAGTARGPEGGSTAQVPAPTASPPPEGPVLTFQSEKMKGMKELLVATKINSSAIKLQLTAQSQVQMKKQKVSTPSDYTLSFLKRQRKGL
Experimental: After the incubation, the signal was detected with RUBYstar (BMG LABTECH).

MOLM-13 cells = experiment: Test 2: inhibition of cell proliferation, MOLM-13; format: cell-based; details: Homo sapiens, 7 days, PrestoBlue cell viability
Experimental: (§2) RS4; 11 cells were obtained from American Type Culture Collection (ATCC). […] MOLM-13 cells were separately obtained from DSMZ (Deutsche Sammlung von Mikroorganismen und Zellkulturen GmbH).
(§3) The cells were plated to a 96-well plate in 2000 cells/well, each test compound was added thereto to adjust the final concentration of DMSO to 0.1% of DMSO, and the cells were cultured for 7 days. After the cultivation, the cell viability was calculated with PrestoBlue™ Cell Viability Reagent (Invitrogen, A13261).

RS4; 11 cells = experiment: Test 2: inhibition of cell proliferation, RS4;11; format: cell-based; details: for IC50: Homo sapiens, RS4;11 cells, 7 days, PrestoBlue cell viability; for cell proliferation inhibition activity: statement in words, RS4;11 and MOLM-13 cells
Experimental: as §2, §3

SMILES	IC50 [1] [nM]	gap between RS4; 11 proliferation IC50 and hERG current IC50 [1]	hERG/RS4; 11 [1]	mRNA at 1 μM (% control) HOXA9 (HOXA9) [% control]	mRNA at 1 μM (% control) MEIS1 (MEIS1) [% control]	mRNA transcription inhibition activity (MEIS1)	IC50 [2] [nM]	Menin-MLL binding inhibition activity [2]	IC50 (MOLM-13 cells) [nM]	IC50 (RS4; 11 cells) [nM]	cell proliferation inhibition activity (RS4; 11 cells)	IC50 ([1]; read-out: hERG inhibition IC50, hERG current, CHO cells) [nM]
CC(C)N(C(=O)c1cc(F)ccc1Oc1cncnc1N1CC2(CCN(C(=O)[C@H]3N[C@H]4CC[C@@H]3C[C@@H]4CC3CC3)CC2)C1)C(C)C [Example 1, 2-[(4-{7-[(1S,3S,4R,6S)-6-(Cyclopropylmethyl)-2-azabicyclo[2.2.2]octane-3-carbonyl]-2,7-diazaspiro[3.5]nonan-2-yl}pyrimidin-5-yl)oxy]-5-fluoro-N,N-di(propan-2-yl)benzamide]	4000	more than 100 fold	>400	40.2	11.8	showed the mRNA transcription inhibition activity	5.3	potent	20	< 10	potent	–
CC(C)N(C(=O)c1cc(F)ccc1Oc1cncnc1N1CC2(CN(C(=O)[C@H]3N[C@H]4CC[C@@H]3C[C@@H]4CC3CC3)C2)C1)C(C)C [Example 3, 2-[(4-{6-[(1S,3S,4R,6S)-6-(cyclopropylmethyl)-2-azabicyclo[2.2.2]octane-3-carbonyl]-2,6-diazaspiro[3.3]heptan-2-yl}pyrimidin-5-yl)oxy]-5-fluoro-N,N-di(propan-2-yl)benzamide]	6200	more than 100 fold	620	39.6	11.9	showed the mRNA transcription inhibition activity	< 3	particularly potent	10	30	potent	–
CC(C)N(C(=O)c1cc(F)ccc1Oc1cncnc1N1CC2(CCN(C(=O)[C@H]3N[C@H]4CC[C@@H]3C[C@H]4CC3CC3)CC2)C1)C(C)C [Example 4, 2-[(4-{7-[(1S,3S,4R,6R)-6-(cyclopropylmethyl)-2-azabicyclo[2.2.2]octane-3-carbonyl]-2,7-diazaspiro[3.5]nonan-2-yl}pyrimidin-5-yl)oxy]-5-fluoro-N,N-di(propan-2-yl)benzamide]	5800	more than 100 fold	145	43.7	18.0	showed the mRNA transcription inhibition activity	7.1	potent	70	40	potent	–
CC(C)N(C(=O)c1cc(F)ccc1Oc1cncnc1N1CC2(CN(C(=O)[C@H]3N[C@H]4CC[C@@H]3C[C@H]4CC3CC3)C2)C1)C(C)C [Example 5, 2-[(4-{6-[(1S,3S,4R,6R)-6-(cyclopropylmethyl)-2-azabicyclo[2.2.2]octane-3-carbonyl]-2,6-diazaspiro[3.3]heptan-2-yl}pyrimidin-5-yl)oxy]-5-fluoro-N,N-di(propan-2-yl)benzamide]	7900	more than 100 fold	395	42.6	15.5	showed the mRNA transcription inhibition activity	4.1	potent	30	20	potent; also recorded: excellent	–
C=C1C[C@@H]2CC[C@H]1[C@@H](C(=O)N1CCC3(CC1)CN(c1ncncc1Oc1ccc(F)cc1C(=O)N(C(C)C)C(C)C)C3)N2 [Example 6, 5-Fluoro-2-[(4-{7-[(1S,3S,4R)-5-methylidene-2-azabicyclo[2.2.2]octane-3-carbonyl]-2,7-diazaspiro[3.5]nonan-2-yl}pyrimidin-5-yl)oxy]-N,N-di(propan-2-yl)benzamide]	–	–	–	39.3	15.1	showed the mRNA transcription inhibition activity	–	–	30	20	–	–
C=C1C[C@H]2CC[C@@H]1N[C@@H]2C(=O)N1CCC2(CC1)CN(c1ncncc1Oc1ccc(F)cc1C(=O)N(C(C)C)C(C)C)C2 [Example 8, 5-fluoro-2-[(4-{7-[(1S,3S,4R)-6-methylidene-2-azabicyclo[2.2.2]octane-3-carbonyl]-2,7-diazaspiro[3.5]nonan-2-yl}pyrimidin-5-yl)oxy]-N,N-di(propan-2-yl)benzamide]	12300	more than 100 fold	137	40.1	17.1	–	–	–	110	90	–	–
C=C1C[C@H]2CC[C@@H]1N[C@@H]2C(=O)N1CC2(C1)CN(c1ncncc1Oc1ccc(F)cc1C(=O)N(C(C)C)C(C)C)C2 [Example 9, 5-fluoro-2-[(4-{6-[(1S,3S,4R)-6-methylidene-2-azabicyclo[2.2.2]octane-3-carbonyl]-2,6-diazaspiro[3.3]heptan-2-yl}pyrimidin-5-yl)oxy]-N,N-di(propan-2-yl)benzamide]	> 10000	more than 100 fold	>125	41.2	17.0	–	–	–	80	80	–	–
CC(C)N(C(=O)c1cc(F)ccc1Oc1cncnc1N1CC2(CN(C(=O)[C@H]3NC4CCC3CC4)C2)C1)C(C)C [Example 11, 2-[(4-{6-[(1R,3S,4R)-2-azabicyclo[2.2.2]octane-3-carbonyl]-2,6-diazaspiro[3.3]heptan-2-yl}pyrimidin-5-yl)oxy]-5-fluoro-N,N-di(propan-2-yl)benzamide]	–	–	>500	36.5	13.1	showed the mRNA transcription inhibition activity	–	–	–	–	–	> 10000
CC(C)N(C(=O)c1cc(F)ccc1Oc1cncnc1N1CC2(CCN(C(=O)[C@H]3N[C@H]4CC[C@@H]3[C@H](F)[C@@H]4CC3CC3)CC2)C1)C(C)C [Example 19, 2-[(4-{7-[(1S,3S,4S,5R,6R)-6-(cyclopropylmethyl)-5-fluoro-2-azabicyclo[2.2.2]octane-3-carbonyl]-2,7-diazaspiro[3.5]nonan-2-yl}pyrimidin-5-yl)oxy]-5-fluoro-N,N-di(propan-2-yl)benzamide]	6900	more than 100 fold	>690	–	–	–	–	–	< 10	< 10	–	–
